According to PubChem BioAssay AID266 (DTP/NCI, 2004):
Values joined by “and” are separate entries in the source; they are usually repeats but may differ in a detail not shown here. Equal entries are not always repeated. Records with an inconclusive call do not appear.

Test system: Nude mice, LX-1 lung xenograft intrarenal, tumor weight T/C
Assay: NCI In Vivo Anticancer Drug Screen. Data for tumor model Human Lung LX-1 Xenograft (intrarenal inoculation) in NU/NU BALB/C (nude) mice
Details: endpoint: mean tumor weight change, higher = larger tumour
Method: The antitumor activity of compounds was measured in mice bearing transplantable tumors. Survival or tumor size were measured and the results are expressed as the measurement made in the treated group (T) divided by the measurement made in the vehicle treated control group (C). The tumor model used in this assay is Human Lung LX-1 Xenograft (intrarenal inoculation) in NU/NU BALB/C (nude) mice

[1] = dose: 150.0 mg/kg/injection, schedule: Q04DX003 (ip), vehicle: Klucel (hydroxypropylcellulose) (HPC)
[2] = dose: 300.0 mg/kg/injection, schedule: Q04DX003 (ip), vehicle: Klucel (hydroxypropylcellulose) (HPC)
[3] = dose: 600.0 mg/kg/injection, schedule: Q04DX003 (ip), vehicle: Klucel (hydroxypropylcellulose) (HPC)
[4] = dose: 100.0 mg/kg/injection, schedule: Q04DX003 (sc), vehicle: saline
[5] = dose: 200.0 mg/kg/injection, schedule: Q04DX003 (sc), vehicle: saline
[6] = dose: 600.0 mg/kg/injection, schedule: Q04DX003 (sc), vehicle: saline with Tween-80
[7] = dose: 1200.0 mg/kg/injection, schedule: Q04DX003 (sc), vehicle: saline with Tween-80
[8] = dose: 50.0 mg/kg/injection, schedule: Q01DX010 (sc), vehicle: Klucel (hydroxypropylcellulose) (HPC)
[9] = dose: 100.0 mg/kg/injection, schedule: Q01DX010 (sc), vehicle: Klucel (hydroxypropylcellulose) (HPC)
[10] = dose: 200.0 mg/kg/injection, schedule: Q01DX010 (sc), vehicle: Klucel (hydroxypropylcellulose) (HPC)

CN(C)N=Nc1ccc(C(=O)O)cc1
T/C (dose: 50.0 mg/kg/injection, schedule: Q04DX003 (ip), vehicle: saline): 2 % of control and 4 % of control
T/C (dose: 400.0 mg/kg/injection, schedule: Q04DX003 (ip), vehicle: saline): -62 % of control and -40 % of control

Nc1ncn(C2CC(O)C(CO)O2)c(=O)n1 (centres undefined)
T/C (dose: 0.75 mg/kg/injection, schedule: Q01DX010 (sc), vehicle: saline): 85 % of control

[N-]=[N+]=CC(=O)CCC(N)C(=O)O (centres undefined)
T/C (dose: 0.05 mg/kg/injection, schedule: Q01DX010 (sc), vehicle: saline): 119 % of control
T/C (dose: 0.05 mg/kg/injection, schedule: Q02DX005 (sc), vehicle: saline): 226 % of control
T/C (dose: 0.1 mg/kg/injection, schedule: Q01DX010 (sc), vehicle: saline): 64 % of control
T/C (dose: 0.1 mg/kg/injection, schedule: Q02DX005 (sc), vehicle: saline): 187 % of control
T/C (dose: 0.2 mg/kg/injection, schedule: Q02DX005 (sc), vehicle: saline): 110 % of control
T/C (dose: 0.4 mg/kg/injection, schedule: Q01DX010 (sc), vehicle: saline): 34 % of control
T/C (dose: 3.2 mg/kg/injection, schedule: Q02DX005 (sc), vehicle: saline): 9 % of control

C[C@]12CCC(=O)C(O)=C1CC[C@@H]1[C@@H]2CC[C@]2(C)C(=O)CC[C@@H]12
T/C [1]: 61 % of control
T/C [2]: 99 % of control
T/C [3]: 89 % of control

Cc1ccoc1
T/C (dose: 50.0 mg/kg/injection, schedule: Q01DX010 (ip), vehicle: saline with Tween-80): 109 % of control
T/C (dose: 100.0 mg/kg/injection, schedule: Q01DX010 (ip), vehicle: saline with Tween-80): 93 % of control
T/C (dose: 200.0 mg/kg/injection, schedule: Q01DX010 (ip), vehicle: saline with Tween-80): 163 % of control
T/C (dose: 400.0 mg/kg/injection, schedule: Q01DX010 (ip), vehicle: saline with Tween-80): 80 % of control

Nc1ccn(C2OC(CO)C(O)C2O)c(=O)n1 (centres undefined)
T/C (dose: 15.63 mg/kg/injection, schedule: Q01DX010 (sc), vehicle: water): 56 % of control
T/C (dose: 31.25 mg/kg/injection, schedule: Q01DX010 (sc), vehicle: water): 91 % of control
T/C (dose: 62.5 mg/kg/injection, schedule: Q01DX010 (sc), vehicle: water): 55 % of control
T/C (dose: 125.0 mg/kg/injection, schedule: Q01DX010 (sc), vehicle: water): 2 % of control
T/C (dose: 500.0 mg/kg/injection, schedule: Q04DX003 (sc), vehicle: saline): 87 % of control
T/C (dose: 1000.0 mg/kg/injection, schedule: Q04DX003 (sc), vehicle: saline): 61 % of control

CC1CN1C(=O)NCCCCCCNC(=O)N1CC1C (centres undefined)
T/C (dose: 20.0 mg/kg/injection, schedule: Q04DX003 (sc), vehicle: Klucel (hydroxypropylcellulose) (HPC)): 68 % of control

NC1=NC(=O)N2CC12 (centres undefined)
T/C (dose: 50.0 mg/kg/injection, schedule: Q04DX003 (sc), vehicle: saline): 101 % of control
T/C [4]: 102 % of control
T/C [5]: 108 % of control

C=COC(=O)C(Cc1ccccc1)NC(=O)OCc1ccccc1 (centres undefined)
T/C (dose: 300.0 mg/kg/injection, schedule: Q04DX003 (sc), vehicle: saline with Tween-80): 114 % of control
T/C [6]: 118 % of control
T/C [7]: 104 % of control

O=C1C2CC(Cl)C(SSC3CC4C(=O)N(SC(Cl)(Cl)C(Cl)Cl)C(=O)C4CC3Cl)CC2C(=O)N1SC(Cl)(Cl)C(Cl)Cl (centres undefined)
T/C (dose: 75.0 mg/kg/injection, schedule: Q04DX003 (ip), vehicle: Klucel (hydroxypropylcellulose) (HPC)): 83 % of control
T/C [1]: 102 % of control
T/C [2]: 76 % of control
T/C [3]: 48 % of control

CN(C)N=Nc1ccc(C(N)=O)cc1
T/C (dose: 200.0 mg/kg/injection, schedule: Q04DX003 (ip), vehicle: saline with Tween-80): -20 % of control and -13 % of control

Oc1cc2ccccc2c(-c2c(O)c(O)cc3ccccc23)c1O
T/C [6]: 122 % of control
T/C [7]: 95 % of control
T/C (dose: 2400.0 mg/kg/injection, schedule: Q04DX003 (sc), vehicle: saline with Tween-80): 84 % of control

CCC(C(=O)O)C(=O)O.[NH-]CC1CCCC[N-]1.[Pt+2]
T/C [4]: 114 % of control
T/C [5]: 90 % of control
T/C (dose: 400.0 mg/kg/injection, schedule: Q04DX003 (sc), vehicle: saline): 60 % of control

Cc1cc(NCCCCCCCCNc2cc(C)nc3cc(N(C)C)ccc23)c2ccc(N(C)C)cc2n1
T/C (dose: 37.5 mg/kg/injection, schedule: Q01DX010 (sc), vehicle: distilled water + Tween-80 + alcohol): 51 % of control
T/C (dose: 75.0 mg/kg/injection, schedule: Q04DX003 (sc), vehicle: distilled water + Tween-80 + alcohol): 64 % of control
T/C (dose: 150.0 mg/kg/injection, schedule: Q04DX003 (sc), vehicle: distilled water + Tween-80 + alcohol): 46 % of control
T/C (dose: 300.0 mg/kg/injection, schedule: Q04DX003 (sc), vehicle: distilled water + Tween-80 + alcohol): 13 % of control

C/C(=C\c1ccccc1)[N+](=O)[O-]
T/C [8]: 96 % of control
T/C [9]: 97 % of control
T/C [10]: 15 % of control

Cc1ccc(S(=O)(=O)NC(=O)OC23COCN2COC3)cc1
T/C (dose: 200.0 mg/kg/injection, schedule: Q04DX003 (sc), vehicle: saline with Tween-80): 118 % of control
T/C (dose: 400.0 mg/kg/injection, schedule: Q04DX003 (sc), vehicle: saline with Tween-80): 121 % of control
T/C (dose: 800.0 mg/kg/injection, schedule: Q04DX003 (sc), vehicle: saline with Tween-80): 153 % of control
T/C (dose: 1600.0 mg/kg/injection, schedule: Q04DX003 (sc), vehicle: saline with Tween-80): 112 % of control

N=C(N)c1ccc(/C=C/c2ccc(C(=N)N)cc2O)cc1
T/C (dose: 37.5 mg/kg/injection, schedule: Q04DX003 (sc), vehicle: water): 86 % of control
T/C (dose: 75.0 mg/kg/injection, schedule: Q04DX003 (sc), vehicle: water): 56 % of control
T/C (dose: 150.0 mg/kg/injection, schedule: Q04DX003 (sc), vehicle: water): 101 % of control
T/C (dose: 300.0 mg/kg/injection, schedule: Q04DX003 (sc), vehicle: water): 43 % of control

COc1cc2cc(c1Cl)N(C)C(=O)C[C@H](OC(=O)[C@H](C)N(C)C(C)=O)[C@]1(C)O[C@H]1[C@H](C)[C@@H]1C[C@@](O)(NC(=O)O1)[C@H](OC)C=C/C=C(\C)C2
T/C [8]: 72 % of control
T/C [9]: 3 % of control
T/C [10]: 1 % of control
T/C (dose: 12.5 micrograms/kg/injection, schedule: Q01DX010 (sc), vehicle: Klucel (hydroxypropylcellulose) (HPC)): 224 % of control
T/C (dose: 25.0 micrograms/kg/injection, schedule: Q01DX010 (sc), vehicle: Klucel (hydroxypropylcellulose) (HPC)): 77 % of control
T/C (dose: 50.0 micrograms/kg/injection, schedule: Q01DX010 (sc), vehicle: Klucel (hydroxypropylcellulose) (HPC)): 73 % of control
T/C (dose: 100.0 micrograms/kg/injection, schedule: Q01DX010 (sc), vehicle: Klucel (hydroxypropylcellulose) (HPC)): 32 % of control
T/C (dose: 200.0 micrograms/kg/injection, schedule: Q01DX010 (sc), vehicle: Klucel (hydroxypropylcellulose) (HPC)): 2 % of control

N#CN=[N+]([O-])c1ccc(C(=O)O)cc1
T/C (dose: 11.25 mg/kg/injection, schedule: Q04DX003 (sc), vehicle: Klucel (hydroxypropylcellulose) (HPC)): 66 % of control
T/C (dose: 22.5 mg/kg/injection, schedule: Q04DX003 (sc), vehicle: Klucel (hydroxypropylcellulose) (HPC)): 65 % of control
T/C (dose: 45.0 mg/kg/injection, schedule: Q04DX003 (sc), vehicle: Klucel (hydroxypropylcellulose) (HPC)): 47 % of control

CCOC(=O)c1c[nH]c2oc(/C=N/N3CC(CN4CCOCC4)OC3=O)cc2c1=O (centres undefined)
T/C (dose: 50.0 mg/kg/injection, schedule: Q01DX010 (sc), vehicle: saline): 81 % of control
T/C (dose: 200.0 mg/kg/injection, schedule: Q01DX010 (sc), vehicle: saline): 118 % of control

CCCCCCCCNc1cc2c3c(c1)CCCN3CCC2
T/C (dose: 6.0 mg/kg/injection, schedule: Q04DX003 (sc), vehicle: Klucel (hydroxypropylcellulose) (HPC)): 155 % of control
T/C (dose: 12.0 mg/kg/injection, schedule: Q04DX003 (sc), vehicle: Klucel (hydroxypropylcellulose) (HPC)): 118 % of control
T/C (dose: 24.0 mg/kg/injection, schedule: Q04DX003 (sc), vehicle: Klucel (hydroxypropylcellulose) (HPC)): 106 % of control

NC(=O)/C=C/C(=O)c1c(Cl)cccc1Cl
T/C (dose: 9.0 mg/kg/injection, schedule: Q04DX003 (sc), vehicle: saline with Tween-80): 83 % of control
T/C (dose: 18.0 mg/kg/injection, schedule: Q04DX003 (sc), vehicle: saline with Tween-80): 79 % of control
